Reference: ChEMBL document CHEMBL4316627, “Modulation of the NOD-like receptors NOD1 and NOD2: A chemist's perspective” (Bioorg Med Chem Lett, 2019)

How the values were obtained:
[1] = Binding affinity to Jack bean Concanavalin A by SPR assay; design: species or system Canavalia ensiformis
[2] = biological target: Nucleotide-binding oligomerization domain-containing protein 2 (Homo sapiens, UniProt Q9HC29); assay: Binding affinity to human NOD2 LRR domain expressed in Escherichia coli by SPR assay
Sequence of Nucleotide-binding oligomerization domain-containing protein 2 (Q9HC29 whole entry, the tested form may be a part): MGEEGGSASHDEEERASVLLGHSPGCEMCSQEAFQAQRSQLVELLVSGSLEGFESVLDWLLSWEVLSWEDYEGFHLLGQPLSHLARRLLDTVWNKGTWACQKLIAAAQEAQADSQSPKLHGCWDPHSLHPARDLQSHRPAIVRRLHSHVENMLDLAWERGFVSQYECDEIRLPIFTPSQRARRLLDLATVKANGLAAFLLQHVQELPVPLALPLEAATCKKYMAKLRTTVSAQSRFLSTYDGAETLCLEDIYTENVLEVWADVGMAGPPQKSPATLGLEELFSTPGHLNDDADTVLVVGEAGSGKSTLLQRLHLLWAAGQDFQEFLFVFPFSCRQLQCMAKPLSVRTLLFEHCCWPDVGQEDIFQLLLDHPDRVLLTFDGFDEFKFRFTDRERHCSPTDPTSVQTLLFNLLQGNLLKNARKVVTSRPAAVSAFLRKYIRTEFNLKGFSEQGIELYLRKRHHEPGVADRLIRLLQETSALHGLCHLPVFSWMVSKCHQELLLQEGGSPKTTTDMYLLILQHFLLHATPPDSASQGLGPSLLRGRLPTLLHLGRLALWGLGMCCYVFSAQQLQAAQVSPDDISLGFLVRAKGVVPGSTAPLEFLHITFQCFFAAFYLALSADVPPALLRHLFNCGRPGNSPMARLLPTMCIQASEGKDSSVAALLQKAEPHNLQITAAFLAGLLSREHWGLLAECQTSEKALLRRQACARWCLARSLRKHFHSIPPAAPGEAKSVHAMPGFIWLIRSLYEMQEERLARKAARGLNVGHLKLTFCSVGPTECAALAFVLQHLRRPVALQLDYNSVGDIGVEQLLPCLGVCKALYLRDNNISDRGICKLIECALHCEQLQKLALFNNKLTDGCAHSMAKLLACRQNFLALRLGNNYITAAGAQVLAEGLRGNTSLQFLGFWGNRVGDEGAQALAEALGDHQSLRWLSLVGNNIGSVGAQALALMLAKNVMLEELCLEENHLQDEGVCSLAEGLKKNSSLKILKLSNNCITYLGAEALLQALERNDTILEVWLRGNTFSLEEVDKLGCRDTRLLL

[3] = biological target: T1, Nucleotide-binding oligomerization domain-containing protein 1 (Homo sapiens, UniProt Q9Y239); assay: Binding affinity to NOD1 LRR domain (unknown origin)
T1 sequence (Q9Y239 whole entry): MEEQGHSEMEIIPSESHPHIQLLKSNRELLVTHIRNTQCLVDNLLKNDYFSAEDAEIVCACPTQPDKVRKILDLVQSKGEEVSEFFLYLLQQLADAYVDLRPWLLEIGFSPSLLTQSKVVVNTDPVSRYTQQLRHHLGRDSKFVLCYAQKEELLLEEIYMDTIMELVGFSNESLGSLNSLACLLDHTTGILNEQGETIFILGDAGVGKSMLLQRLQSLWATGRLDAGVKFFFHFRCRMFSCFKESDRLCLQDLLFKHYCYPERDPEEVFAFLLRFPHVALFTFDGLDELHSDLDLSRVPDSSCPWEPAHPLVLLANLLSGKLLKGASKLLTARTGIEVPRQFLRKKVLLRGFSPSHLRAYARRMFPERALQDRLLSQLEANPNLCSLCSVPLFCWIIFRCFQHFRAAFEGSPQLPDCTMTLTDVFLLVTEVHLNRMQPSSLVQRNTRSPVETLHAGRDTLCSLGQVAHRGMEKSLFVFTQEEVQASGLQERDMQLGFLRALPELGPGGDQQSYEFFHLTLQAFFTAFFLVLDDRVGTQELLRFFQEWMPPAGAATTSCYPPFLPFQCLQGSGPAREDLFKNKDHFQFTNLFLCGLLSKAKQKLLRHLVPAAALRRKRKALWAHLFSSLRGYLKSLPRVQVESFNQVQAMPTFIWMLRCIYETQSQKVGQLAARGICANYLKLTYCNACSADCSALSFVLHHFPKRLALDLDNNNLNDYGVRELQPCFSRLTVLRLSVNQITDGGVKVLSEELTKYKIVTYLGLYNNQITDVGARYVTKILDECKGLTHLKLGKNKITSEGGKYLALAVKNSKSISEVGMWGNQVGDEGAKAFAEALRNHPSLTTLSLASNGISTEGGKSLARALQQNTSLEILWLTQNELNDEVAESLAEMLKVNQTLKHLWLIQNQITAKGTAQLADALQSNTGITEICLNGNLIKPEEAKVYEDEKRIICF

Jacalin = biological target: T2, Jacalin (Artocarpus heterophyllus, UniProt Q38720); assay: Binding affinity to jackfruit jacalin by SPR assay
T2 sequence (Q38720 whole entry): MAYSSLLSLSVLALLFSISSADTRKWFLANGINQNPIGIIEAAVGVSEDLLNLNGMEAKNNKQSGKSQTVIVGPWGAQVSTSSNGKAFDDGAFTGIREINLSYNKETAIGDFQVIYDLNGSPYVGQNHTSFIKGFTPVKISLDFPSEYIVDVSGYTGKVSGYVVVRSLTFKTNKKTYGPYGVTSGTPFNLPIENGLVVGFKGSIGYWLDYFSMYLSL

## OC[C@H]1OC(O)[C@@H](O)[C@@H](O)[C@@H]1O (stereo partly drawn) [D-MANNOSE]
[1]
  Kd: 200 µM

## CC(=O)N[C@H]1C(O)O[C@H](CO)[C@@H](O)[C@@H]1O[C@H](C)C(=O)N[C@@H](C)C(=O)N[C@H](CCC(=O)O)C(N)=O (some centres undefined) [MURAMYL DIPEPTIDE]
[2]
  Kd: 200 nM

## C[C@H](N)C(=O)N[C@H](CCC(=O)N[C@@H](CCC[C@@H](N)C(=O)O)C(=O)O)C(N)=O
[3]
  Kd: 35 µM

## O=C[C@H](O)[C@@H](O)[C@@H](O)[C@H](O)CO [GALACTOSE]
Jacalin
  Kd: 16 µM
